Test results: patent US20260097049A1, “C[…] AND METHODS OF USE FOR TREATMENT AND PREVENTION OF CANCER” (BlackStone Therapeutics, LLC, priority 2022, published 2026)
Read-outs that look alike come from different tables or passages of the source.

Tests used:
Type in all cases: cell-based
[1] = system: MIA-PaCa2; experiment: IC50 in cell lines (Table 4), MIA-PaCa2; conditions: Homo sapiens, MIA PaCa-2
Protocol: (§1) Various compounds, including (R)-H4CBD and (S)-H4CBD, and H4CBDV racemic mixture, were tested for cell killing against various cancer cell lines, including PANC-1, HPAF-II, AsPC-1, and MIA-PaCa2.
(§2) Table 4 summarizes the measured IC50 for specific compounds in the indicated cell types.

[2] = system: PANC1; experiment: IC50 in cell lines (Table 4), PANC1; conditions: Homo sapiens, PANC-1
Protocol: as §1, §2

[3] = target: hERG (Homo sapiens, UniProt Q12809); experiment: hERG assay
Chain of hERG (Q12809 whole entry): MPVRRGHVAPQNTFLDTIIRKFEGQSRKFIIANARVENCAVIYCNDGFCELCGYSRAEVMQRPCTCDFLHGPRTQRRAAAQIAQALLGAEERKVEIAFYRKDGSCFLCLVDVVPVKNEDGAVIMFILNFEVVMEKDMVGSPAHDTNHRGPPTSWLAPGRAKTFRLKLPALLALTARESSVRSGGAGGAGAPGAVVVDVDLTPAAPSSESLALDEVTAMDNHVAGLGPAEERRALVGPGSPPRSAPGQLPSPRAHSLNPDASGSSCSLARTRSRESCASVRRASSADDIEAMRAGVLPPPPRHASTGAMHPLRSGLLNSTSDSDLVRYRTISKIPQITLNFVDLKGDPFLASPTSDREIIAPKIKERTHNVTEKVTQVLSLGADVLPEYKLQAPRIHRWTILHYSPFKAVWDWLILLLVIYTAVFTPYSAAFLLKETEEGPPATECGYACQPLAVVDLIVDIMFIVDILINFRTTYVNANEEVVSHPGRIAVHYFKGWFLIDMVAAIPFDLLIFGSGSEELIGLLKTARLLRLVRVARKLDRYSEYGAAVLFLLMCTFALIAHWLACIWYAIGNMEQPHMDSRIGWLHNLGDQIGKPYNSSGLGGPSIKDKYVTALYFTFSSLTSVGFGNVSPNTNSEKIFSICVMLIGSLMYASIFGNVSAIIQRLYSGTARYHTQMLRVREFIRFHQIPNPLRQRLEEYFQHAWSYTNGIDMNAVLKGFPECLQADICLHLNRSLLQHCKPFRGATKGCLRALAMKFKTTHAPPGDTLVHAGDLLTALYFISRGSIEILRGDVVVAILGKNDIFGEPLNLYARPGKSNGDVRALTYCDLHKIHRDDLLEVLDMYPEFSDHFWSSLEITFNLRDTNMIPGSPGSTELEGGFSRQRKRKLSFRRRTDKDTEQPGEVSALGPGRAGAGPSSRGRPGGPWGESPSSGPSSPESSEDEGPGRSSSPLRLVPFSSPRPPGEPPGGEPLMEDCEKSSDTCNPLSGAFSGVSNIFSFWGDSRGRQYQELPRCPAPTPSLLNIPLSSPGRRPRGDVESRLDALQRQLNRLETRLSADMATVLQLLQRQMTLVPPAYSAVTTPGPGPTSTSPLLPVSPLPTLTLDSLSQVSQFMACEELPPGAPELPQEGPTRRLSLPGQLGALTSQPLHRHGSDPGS
Protocol: (§3) At 50 μM, 74.8% of human fibroblasts died and 8% of hepatocytes.

[4] = system: human fibroblasts; experiment: Cytotoxicity in human fibroblasts
Protocol: as §3

[5] = Ames test
[6] = system: hepatocytes; experiment: Cytotoxicity in hepatocytes; conditions: at 50 μM
Protocol: as §3

[7] = system: A549 Lung Carcinoma Epithelial Cells (CCL-185 from ATCC); experiment: Percent viability of lung carcinoma cells; conditions: for cell viability, comparison in words (figure legends): FIGS. 39, 42, 43; for viability at 1.56 µM / viability at 3.12 µM / viability at 6.25 µM / viability at 12.5 µM / viability at 25 µM / viability at 50 µM: Homo sapiens
Protocol: GR-X1=H4CBDV, GR-X2=(R)-H4CBD, GR-X3=(S)-H4CBD, GR-X4=HHC.
The IC50 of the hydrogenated cannabivarin, hexahydrocannabidivarin (H4CBDV), (R)-H4CBD, (S)-H4CBD, HHC racemic mixture, and gemcitabine, paclitaxel, and 5-fluorouracil were determined in lung carcinoma cells (A549 Lung Carcinoma Epithelial Cells (CCL-185 from ATCC)) as shown in FIGS. 39-43 and Table 3.

[8] = system: PANC-1; experiment: CellTiterGlo cell viability, PANC-1 cells; conditions: Homo sapiens, 72 h
Protocol: (§4) The IC50 values for (R)-H4CBD, (S)-H4CBD, H4CBDV racemic mixture, and bortezomib were determined. Compound treatment of cells started one day after seeding with a final DMSO concentration of 0.1% and was performed by nanodrop-dispensing using a Tecan Dispenser. 0.1% DMSO (solvent) and Staurosporine (1,0E-05M) served as high control (100% viability) and low control (0% viability), respectively. For the assays, cells were seeded in white cell culture-treated flat and clear bottom multiwell plates and incubated at 37° C. overnight before compounds were added. After incubation for 72 h at 37° C. at 5% or 10% CO2 dependent on the medium, cell plates were equilibrated to room temperature for one hour, CellTiterGlo reagent (Promega) was added and luminescence was measured approximately an hour later using a luminometer.
(§5) Raw data were converted into percent cell viability relative to the high and low control, which were set to 100% and 0%, respectively. IC50 calculation was performed using GraphPad Prism software with a variable slope sigmoidal response fitting model using 0% viability as bottom constraint and 100% viability as top constraint. IC50 results in PANC-1, MIA-PaCa2, and AsPC-1 cells for (R)-H4CBD, (S)-H4CBD, H4CBDV racemic mixture, and bortezomib are shown in FIGS. 10-12 and Table 2

[9] = system: MiaPaCA-2; experiment: CellTiterGlo cell viability, MiaPaCA-2 cells; conditions: Homo sapiens, MIA PaCa-2, 72 h
Protocol: as §4, §5

[10] = system: AsPC-1; experiment: CellTiterGlo cell viability, AsPC-1 cells; conditions: Homo sapiens, ASPC1, 72 h
Protocol: as §4, §5

[11] = system: HPAFII; experiment: IC50 in cell lines (Table 4), HPAFII; conditions: Homo sapiens, HPAF-II
Protocol: as §1, §2

[12] = system: AsPC-1; experiment: IC50 in cell lines (Table 4), AsPC-1; conditions: Homo sapiens, ASPC1
Protocol: as §1, §2

[13] = A549, read-out: Percent viability of cells, Mean (%)
[14] = A549, agent concentration 1.56 uM, read-out: Percent viability of cells, Mean (%)
[15] = A549, agent concentration 3.12 uM, read-out: Percent viability of cells, Mean (%)
[16] = A549, agent concentration 6.25 uM, read-out: Percent viability of cells, Mean (%)
[17] = A549, agent concentration 12.5 uM, read-out: Percent viability of cells, Mean (%)
[18] = A549, agent concentration 25 uM, read-out: Percent viability of cells, Mean (%)
[19] = A549, agent concentration 50 uM, read-out: Percent viability of cells, Mean (%)

## CCCc1cc(O)c2c(c1)OC(C)(C)C1CCC(C)CC21 (racemic) [CCL-103, HHCV]
[1]
  IC50: 0.0197 mM
[2]
  IC50: 0.00507 mM

## CCCCCCCc1cc(O)c(C2CC(C)CCC2C(C)C)c(O)c1 (racemic) [CCL-105, H4CBDP]
[1]
  IC50: 0.0061 mM
[2]
  IC50: 0.00255 mM

## CCCCCc1cc(O)c2c(c1)OC(C)(C)C1CCC(C)CC21 (racemic) [CCL-113, hexahydrocannabinol]
[3]
  cytotoxicity in hERG assay: did not show cytotoxicity
[4]; Homo sapiens, Fibroblast
  IC50: 14.4 µM
[4]; at 50 μM
  human fibroblasts died: 74.8%
[5]
  cytotoxicity in Ames test: did not show cytotoxicity
[6]
  hepatocytes died: 8%
[7]
  cell viability, comparison in words (figure legends): the only compound that presented higher cell viability from 25 μM
[7]; [13]
  viability at 1.56 µM: 92.5%
  viability at 3.12 µM: 92.9%
  viability at 6.25 µM: 95.6%
  viability at 12.5 µM: 96.1%
  viability at 25 µM: 81.6%
  viability at 50 µM: 22.1%

## O=c1[nH]cc(F)c(=O)[nH]1 [5-fluorouracil, reference compound]
[7]
  cell viability, comparison in words (figure legends): presented the best cell viability when compared to the other two drugs, gemcitabine and paclitaxel

## CC(C)C[C@H](NC(=O)[C@H](Cc1ccccc1)NC(=O)c1cnccn1)B(O)O [Bortezomib, reference compound]
[8]
  IC50: 0.0134 µM
[9]
  IC50: 0.0149 µM
[10]
  IC50: 0.0334 µM

## CCCCCc1cc(O)c2c(c1)OC(C)(C)C1CC[C@@H](C)CC21 (stereo partly drawn) [CCL-101, 9R-Hexahydrocannabinol]
[1]
  IC50: 0.0127 mM
[11]
  IC50: 0.00884 mM
[2]
  IC50: 0.00908 mM
[12]
  IC50: 0.0166 mM

## CCCCCc1cc(O)c2c(c1)OC(C)(C)C1CC[C@H](C)CC21 (stereo partly drawn) [CCL-102, 9S-Hexahydrocannabinol]
[1]
  IC50: 0.0272 mM
[11]
  IC50: 0.00702 mM
[2]
  IC50: 0.0172 mM
[12]
  IC50: 0.0115 mM

## CCCCCc1cc(O)c(C2C[C@H](C)CCC2C(C)C)c(O)c1 (stereo partly drawn) [CCL-111, (R)-H4CBD]
[8]
  IC50: 5.29 µM
[9]
  IC50: 3.24 µM
[10]
  IC50: 4.85 µM

## CCCCCc1cc(O)c(C2C[C@@H](C)CCC2C(C)C)c(O)c1 (stereo partly drawn) [CCL-112, (S)-H4CBD]
[8]
  IC50: 8.02 µM
[9]
  IC50: 4.77 µM
[10]
  IC50: 6.17 µM

## CCCCCc1cc(O)c(C2C[C@H](C)CCC2C(C)C)c(O)c1 (some centres unmarked) [R- H4CBDV]
[7]; [14]
  viability at 1.56 µM: 92.3%
[7]; [15]
  viability at 3.12 µM: 86.7%
[7]; [16]
  viability at 6.25 µM: 86%
[7]; [17]
  viability at 12.5 µM: 45%
[7]; [18]
  viability at 25 µM: 14%
[7]; [19]
  viability at 50 µM: 4.18%

## CCCCCc1cc(O)c(C2C[C@@H](C)CCC2C(C)C)c(O)c1 (some centres unmarked) [S- H4CBDV]
[7]; [14]
  viability at 1.56 µM: 94.2%
[7]; [15]
  viability at 3.12 µM: 99.6%
[7]; [16]
  viability at 6.25 µM: 94.1%
[7]; [17]
  viability at 12.5 µM: 81.3%
[7]; [18]
  viability at 25 µM: 13.8%
[7]; [19]
  viability at 50 µM: 1.53%

## CC(=O)O[C@H]1C(=O)[C@@]2(C)[C@H]([C@H](OC(=O)c3ccccc3)[C@]3(O)C[C@H](OC(=O)[C@H](O)[C@@H](NC(=O)c4ccccc4)c4ccccc4)C(C)=C1C3(C)C)[C@]1(OC(C)=O)CO[C@@H]1C[C@@H]2O [paclitaxel, reference compound]
[7]
  cell viability, comparison in words (figure legends): higher cytotoxicity at a lower concentration than 5-flurouracil
